Source: patent US6375926B1, “Labelled elastase inhibitors” (Amersham International PLC, priority 1996, dated 2002)

Legend:
[1] = target: T1, HLE (human leucocyte elastase) (Homo sapiens, UniProt P08246); test: Measurement of HLE inhibition potency (kinact/Ki); type: biochemical; conditions: for kinact/Ki (human elastase): as listed in Table 24 beside the radiolabelled compounds; for Potency (1/(M·s)), kinact/Ki: measured for non-radioactive iodine-labelled compounds and unlabelled chelate conjugates
T1 sequence (P08246 30-267): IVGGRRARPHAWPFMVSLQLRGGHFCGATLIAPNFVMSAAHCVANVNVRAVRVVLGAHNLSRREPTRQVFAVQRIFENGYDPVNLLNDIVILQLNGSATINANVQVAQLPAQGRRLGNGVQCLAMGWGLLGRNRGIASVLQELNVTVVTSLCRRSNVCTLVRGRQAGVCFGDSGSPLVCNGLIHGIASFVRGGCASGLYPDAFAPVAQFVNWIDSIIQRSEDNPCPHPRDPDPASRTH
Procedure: Inhibitor potency against HLE is described by the parameter kinact/Ki as previously reported [Knight et al., Biochem., 8160-8170, (1992)]. Lyophilised enzyme was reconstituted with TrisHCl buffer, 100 mM, 0.5M NaCl at 0.05 units/ml (approximately nanomolar concentration) in a final reaction volume of 1 ml to which was added methoxysucc-ala-ala-pro-val-pNA substrate (1 mM) and the elastase inhibitor dissolved in DMSO. The reaction was monitored by detecting the change of absorbance at 410 nm (hydrolysis of the substrate releasing p-nitroaniline) over a timescale of 25 minutes. Values of kinact/Ki were estimated according to the Knight et al method.

[2] = system: isolated human white cells (granulocytes; monocytes + lymphocytes); test: In vitro cell uptake in isolated human white cells; type: cell-based; conditions: for selectivity for granulocytes over a mixture of monocytes/lymphocytes: approximately equivalent numbers of monocytes/lymphocytes and granulocytes present; for % uptake in Gran. (granulocytes), WHITE CELLS / % uptake in Mon. (monocytes + lymphocytes), WHITE CELLS: isolated human white cells, 30 minutes at 37° C., radiolabelled compound
Procedure: Fresh blood (30-120 ml) was anticoagulated with 1.5% ACD solution and sedimented by addition of 2 ml Hespan per 10 ml blood for 90 minutes at room temperature. The leucocyte rich platelet rich plasma supernatant was removed and centrifuged at 150 g for 5 minutes, yielding a leucocyte rich pellet and platelet rich plasma (PRP). The PRP was centrifuged at 4000 g to pellet the platelets leaving a cell free plasma (CFP). The leucocyte pellet was resuspended in a 50:50 mixture of HBSS and CFP and incubated with the radioactive compound for 30 minutes at 37° C. Free radioactive material was then removed from the cells by addition of an excess of HBSS:CFP and centrifugation of the leucocytes at 150 g for 7 minutes. The supernatant and cell pellet were taken for radioactive counting for calculation of percentage cell uptake. The distribution of radioactivity within the cell pellet was assessed by separation of the cell types using Percoll density gradient centrifugation (38%, 55% and 73% Percoll in HBSS step gradients). The residual plasma and free activity was recovered from the top of the gradient, the mononuclear cells (lymphocytes and monocytes) from the interface between 38% and 55%, and the granulocytes were recovered from the interface between 55% and 73% Percoll.

[3] = system: mixed human red/white cells (granulocytes, monocytes + lymphocytes, erythrocytes); test: In vitro cell uptake in mixed human red/white cells; type: cell-based; conditions: radiolabelled compound
Procedure: The radioactive compound was also incubated with an isolated leucocyte preparation to which an erythrocyte fraction had been added back. The packed erythrocytes obtained after blood sedimentation were washed twice with HBSS and then resuspended in their original blood volume with HBSS. Leucocytes obtained from 30 ml blood were resuspended in 0.5 ml erythrocyte suspension and 0.5 ml CFP. The cell suspension was then incubated with compound as above. Analysis of the distribution of activity in the cell pellet in the presence of red blood cells was carried out using Ficoll-Hypaque discontinuous density gradients (densities 1.04, 1.077 and 1.119 g/ml Histopaque steps).

[4] = system: human whole blood (granulocytes, monocytes + lymphocytes, erythrocytes); test: In vitro cell uptake in human whole blood; type: cell-based; conditions: 37° C. for 1 hour, radiolabelled compound
Procedure: The radioactive compound was added to 1 ml whole blood anticoagulated with ACD and incubated at 37° C. for 1 hour. The blood was diluted with HBSS and the cellular component separated by centrifugation. Distribution of activity within the cellular pellet was assessed by separation of cell fractions on Ficoll-Hypaque gradients as above.

[5] = system: E. coli infected rats (experimental abscess); test: In vivo biodistribution in rats bearing experimental abscesses, direct intravenous injection; set-up: species or system male Wistar rats; conditions: directly injected i.v.; for Relative conc. In infected area: % injected dose in a % body weight; for Infected/normal: ratio of % id/g infected area to contralateral thigh; for Infected/blood: ratio of %/g infected area to blood
Procedure: (§1) The model: into the right gracilis (thigh) muscle of male Wistar rats (250-325 g) were injected 1 ml/kg of an E. coli suspension containing >> 5×10^8/ml organisms.
(§2) Validation: the model was validated for use in the development of diagnostic imaging agents of infection/inflammation by the intravenous injection of ^99mTc-HMPAO ex-vivo labelled human wbc or ^67Ga-citrate when the abscesses were 24 hours old. Animals were dissected between 4 and 24 hours after injection. ^99mTc-labelled red blood cells were used as a negative control.
The animals were sacrificed at either 4 or 24 hours post injection and relevant tissues dissected.

[6] = system: E. coli infected rats (experimental abscess); test: In vivo biodistribution of ex vivo labelled human leucocytes in E. coli infected rats; set-up: species or system male Wistar rats; conditions: ex vivo labelled human leucocytes injected i.v.
Procedure: as §1, §2
Screening of Ex vivo labelled human leucocytes in E. coli infected rats: A mixed population of human leucocytes was incubated with elastase inhibitor for 30 minutes at 37° C. The cells were then spun down and resuspended in a known volume of rat plasma for intravenous injection into rats bearing a 24 hour old abscess. Animals were dissected at 4 and 24 hours post injection.

[7] = In vivo stability of iodinated HLE inhibitors (thyroid uptake); set-up: species or system male Wistar rats; conditions: i.v. injection
Procedure: The in vivo stability of radioiodinated HLE inhibitors was monitored by determination of the percentage uptake in the thyroid as a function of time after administration. Thus radioiodinated compounds and ^123I free iodide were injected into male Wistar rats. The percentage of injected dose distributing to the thyroid was calculated by dissection at 4 and 24 hours post injection and counting.

Structure (SMILES)	kinact/Ki (human elastase) [1]	Potency (1/(M·s)), kinact/Ki [1]	selectivity for granulocytes over a mixture of monocytes/lymphocytes [2]	% uptake in Gran. (granulocytes), WHITE CELLS [2]	% uptake in Mon. (monocytes + lymphocytes), WHITE CELLS [2]	% uptake in Eryth. (erythrocytes), WHITE AND RED CELLS [3]	% uptake in Gran. (granulocytes), WHITE AND RED CELLS [3]	% uptake in Mon. (monocytes + lymphocytes), WHITE AND RED CELLS [3]	Relative conc. In infected area ([5]; 4 hrs post injection)	Infected/normal ([5]; 4 hrs post injection)	Infected/blood ([5]; 4 hrs post injection)	Relative conc. In infected area ([5]; 24 hrs post injection)	Infected/normal ([5]; 24 hrs post injection)	Infected/blood ([5]; 24 hrs post injection)	Infected/blood ([6]; 4 hrs post injection)	Infected/normal ([6]; 4 hrs post injection)	Relative conc. In infected area ([6]; 4 hrs post injection)	Infected/blood ([6]; 24 hrs post injection)	Infected/normal ([6]; 24 hrs post injection)	Relative conc. In infected area ([6]; 24 hrs post injection)	also measured
CCC[C@@H](NC(=O)N1C(=O)C(CC)(CC)[C@@H]1Oc1ccc(C(=O)N2CCN(C)CC2)cc1)c1ccc(I)cc1 [Compound 24, 4S-[4-[[(4-methyl)piperazin-1-yl]carbonyl]phenoxy]-1-[(R-α-n-propyl)-(4-iodo)benzylaminocarbonyl]-3,3-diethyl-2-azetidinone]	2830000	2.83e+06 M⁻¹ s⁻¹	some degree of selectivity for granulocytes	83.2%	3.4%	41.7%	40.4%	4.0%	0.38	1.3	1.3	0.16	1.1	0.9	0.9	1.3	0.53	0.9	1.3	0.20	% uptake in Eryth. (erythrocytes), WHOLE BLOOD [4]: 16.6%; % uptake in Gran. (granulocytes), WHOLE BLOOD [4]: 24.3%; % uptake in Mon. (monocytes + lymphocytes), WHOLE BLOOD [4]: 13.6%; % dose in Thyroid ([7]; 4 hours): 0.2 % dose; % dose in Thyroid ([7]; 24 hours): 0.6 % dose
CCC[C@@H](NC(=O)N1C(=O)C(CC)(CC)[C@@H]1Oc1cccnc1)c1ccc(I)cc1 [Compound 28, 4S-(Pyridyl-3-oxy)-1-[(R-α-n-propyl)-(4-iodo)benzylaminocarbonyl]-3,3-diethyl-2-azetidinone]	650000	650000 M⁻¹ s⁻¹	some degree of selectivity for granulocytes	67.4%	14.8%	17.5%	41.9%	14.9%	0.22	1.3	1.1	0.12	1.2	1.2	0.9	1.5	0.45	0.9	1.2	0.16	
[123IH] [[^123I]-iodide, reference compound]																					% dose in Thyroid ([7]; 4 hours): 6.8 % dose; % dose in Thyroid ([7]; 24 hours): 22.2 % dose
